Reference: US20220218714A1, “METHOD OF TREATING CANCER” (Epizyme, Inc., priority 2013, published 2022)

Experiments:
HS-SY-II cells [1] = assay: Adherent cell line 14-day long-term proliferation assay (CellTiter-Glo); format: cell-based, human
Protocol: (§1) 96-well plating for 7 day assay: For each adherent cell line, plated cells in a volume of 100 μL in 96-well plates, to be treated in triplicate, either in the evening (to treat with compound the following day) or in morning (to treat with compound in the evening), to allow cells to attach to plates before compound treatment.
(§2) 6-well plates to be split for 7-14 day assay: Plated 2mL of cells at the correct density in each well of the 6-well plate. Calculated the correct density from the 96-well plate growth curve by multiplying the 96-well density by 30. The factor 30 came from growth area of the 6-well plate divided by the growth area of the 96-well plate (9.5cm^2/0.32cm^2=29.7, rounded up to 30), which corresponds to 30-fold more surface area in a 6-well vs. a 96-well plate.
(§3) Day 0: Treated with compound or DMSO by removing media and adding back either […] (for 96-well plate) or 2 mL (for 6-well plate) media with the correct dilutions of compound/DMSO. Table 1 includes an example of 96-well plate map. Plates were incubated for 96 hours.
(§4) Read one 96-well plate with CellTiter-Glo®, for a Day 0 reading (media change not necessary for this plate).
(§5) Day 4: Read one 96-well plate with CellTiter-Glo® for a Day 4 reading (media change not necessary for this plate before reading). Replaced media with fresh media containing compound on Day 4 in 96-well plates and 6-well plates.
(§6) Day 7: read final 96-well plate with CellTiter-Glo®.
(§7) Counted individual wells of 6-well plates, and replated cells to initial plating density in 96-well plates, as described above.
(§8) Repeated steps for Days 0-7 for Days 7-14 of the proliferation assay.
(§9) Particularly, approximately 12 hours before compound treatment, HS-SY-II or SW982 cells were plated at the density of 24,000 cells/well and 7,500 cells/well, respectively in 6-well plates. On day 0, cells were treated with either DMSO or compound starting at 10 μmol/L and decreasing in fourfold dilutions. On day 7, the cells in 6-well plates were trypsinized, counted by TC10 automated cell counter (Bio-Rad, Richmond, Calif.) and replated at the density of 800 cells/well and 250 cells/well for HS-SY-II and SW982, respectively in 96-well plates in triplicate. The cells were allowed to adhere to the plate overnight, and treated with either DMSO or compound as on Day 0. On days 0, 7, 11, and 14, cell viability was determined by CellTiter-Glo® Luminescent Cell Viability Assay (Promega) with EnVision 2103 Multilabel Reader (Perkin-Elmer, Wellesley, Mass.). Compound/media was changed with new one on Day 4 and 11. The ratios of the measured values on Days 7, 11, and 14 to that of day 7 were used to plot proliferation from day 7 to day 14, and to calculate the IC50 values on Day 14. […]

SW982 cells [2] = assay: as above; format: cell-based, human
Protocol: as §1, §2, §3, §4, §5, §6, §7, §8, §9

SW982 cells [3] = conditions: SW982 in vitro culture
HS-SY-II cells [4] = assay: Gene expression changes in vitro (RT-PCR, normalized to GAPDH); format: cell-based, human; conditions: HS-SY-II in vitro culture
Protocol: ATF3, EGR1, CDKN2A and GAPDH expression were analyzed by using the TaqMan Gene Expression Assays (Life technologies, 4331182) and the TaqMan Probes (Hs00231069_ml, Hs00152928_ml, Hs00233365_ml, and Hs99999905_ml, respectively).

Row | Structure (SMILES) | sensitivity (cell proliferation / viability) (HS-SY-II cells [1]) | sensitivity (cell proliferation / viability) (SW982 cells [2]) | ATF3 and EGR1 expression (SW982 cells [3]) | ATF3 and EGR1 expression (HS-SY-II cells [4]) | CDKN2A expression (HS-SY-II cells [4])
1 | CCN(c1cc(-c2ccc(CN3CCOCC3)cc2)cc(C(=O)NCc2c(C)cc(C)[nH]c2=O)c1C)[C@H]1CC[C@H](N(C)C)CC1 [Compound E] | high sensitivity | did not |  |  | 
2 | CCN(c1cc(-c2ccc(CN3CCOCC3)cc2)cc(C(=O)NCc2c(C)cc(C)[nH]c2=O)c1C)[C@H]1CC[C@H](N(C)C)CC1 [Compound C] |  |  | not in SW982 | upregulated | Dose- and time-dependent CDKN2A upregulation
